Measurements from US20070270484A1, “3'-N-Substituted-3-O-Substituted Erythronolide a Derivatives” (priority 2003, published 2007).

Key:
S. pneum AB 29 (erm) = assay: microbe, parasite or virus in culture; format: cell-based, streptococcus pneumoniae; details: agar dilution, 18-24 hours, 35±2° C., 5% CO2; erm: ribosomal modification (mutation) erm genes
Experimental: (§1) Drug dilutions and the agar plates are prepared by NCCLS method. Inoculum is prepared by direct colony suspensions in normal saline and adjusted to 0.5 McFarland turbidity and subsequently diluted as per NCCLS guidelines in order to obtain 10^4 CFU/spot. CFU/ml of a few randomly selected cultures is performed. The cultures are replicated on the agar plates using replicator (Denley's multipoint). The plates are incubated at 35±2° C. and in 5% CO2 atmosphere (for respiratory and Haemophilus strains) for 18-24 hours at 35±2° C. Minimum inhibitory concentrations (MIC) are determined after 18-24 hours. Q. C. strains are also included in each run of the study. The cation content of Mueller Hinton agar is checked by performing disk […] of 10 μg gentamicin disk against Pseudomonas aeroginosa ATCC 27853. The zone of inhibition should fall between 16-21 mm. The concentration of drug at which there is complete disappearance of growth spot or formation of less than 10 colonies per spot is considered as MIC.

S. pneum AB 14 (erm) = assay: microbe, parasite or virus in culture; format: cell-based, streptococcus pneumoniae; details: agar dilution, 18-24 hours, 35±2° C., 5% CO2; erm: ribosomal modification (mutation) erm genes
Experimental: as §1

S. pneum 1256 (erm) = assay: microbe, parasite or virus in culture; format: cell-based, streptococcus pneumoniae; details: agar dilution, 18-24 hours, 35±2° C., 5% CO2; erm: ribosomal modification (mutation) erm genes
Experimental: as §1

S. pneum 1294 (mef) = assay: microbe, parasite or virus in culture; format: cell-based, streptococcus pneumoniae; details: agar dilution, 18-24 hours, 35±2° C., 5% CO2; mef: efflux pump mef genes
Experimental: as §1

S. pneum 1275 (erm) = assay: microbe, parasite or virus in culture; format: cell-based, streptococcus pneumoniae; details: agar dilution, 18-24 hours, 35±2° C., 5% CO2; erm: ribosomal modification (mutation) erm genes
Experimental: as §1

S. pneum AB 30 (erm) = assay: microbe, parasite or virus in culture; format: cell-based, streptococcus pneumoniae; details: agar dilution, 18-24 hours, 35±2° C., 5% CO2; erm: ribosomal modification (mutation) erm genes
Experimental: as §1

MoraXella MI = assay: MIC, agar incorporation method (NCCLS agar dilution method); format: cell-based; details: 18-24 hours, 35±2° C.
Experimental: as §1

H. inflenza ATCC 49247 = assay: as above; format: cell-based, Haemophilus influenzae; details: agar dilution, 18-24 hours, 35±2° C., 5% CO2
Experimental: Minimum inhibitory concentrations (μg/ml) were obtained for representative compounds of the invention, which are given in Table 2.
as §1

S. pneum ATCC 49619 = assay: as above; format: cell-based, streptococcus pneumoniae; details: 18-24 hours, 35±2° C., 5% CO2
Experimental: as §1

S. pneum AB 34 (mef) = assay: as above; format: cell-based, streptococcus pneumoniae; details: 18-24 hours, 35±2° C., 5% CO2, mef: efflux pump mef genes
Experimental: as §1

S. pneum ATCC 6303 = assay: as above; format: cell-based, streptococcus pneumoniae; details: 18-24 hours, 35±2° C., 5% CO2
Experimental: as §1

S. pneum 1251 (mef) = assay: as above; format: cell-based, streptococcus pneumoniae; details: 18-24 hours, 35±2° C., 5% CO2, mef: efflux pump mef genes
Experimental: as §1

S. pneum CS 1687 (mef) = assay: as above; format: cell-based, streptococcus pneumoniae; details: 18-24 hours, 35±2° C., 5% CO2, mef: efflux pump mef genes
Experimental: as §1

Which results are given for `CC[C@H]1OC(=O)[C@H](C)[C@@H](O[C@H]2C[C@@](C)(OC)[C@@H](O)[C@H](C)O2)[C@H](C)[C@@H](O[C@@H]2O[C@H](C)C[C@H](N(C)C)[C@H]2O)[C@](C)(O)C[C@@H](C)C(=O)[C@H](C)[C@@H](O)[C@]1(C)O` [E, erythromycin A, reference compound]?
Minimum Inhibitory Concentrations, S. pneum AB 29 (erm) (S. pneum AB 29 (erm)): >16 µg/mL; Minimum Inhibitory Concentrations, S. pneum AB 14 (erm) (S. pneum AB 14 (erm)): >16 µg/mL; Minimum Inhibitory Concentrations, S. pneum 1256 (erm) (S. pneum 1256 (erm)): >16 µg/mL; Minimum Inhibitory Concentrations, S. pneum 1294 (mef) (S. pneum 1294 (mef)): >16 µg/mL; Minimum Inhibitory Concentrations, S. pneum 1275 (erm) (S. pneum 1275 (erm)): >16 µg/mL; Minimum Inhibitory Concentrations, S. pneum AB 30 (erm) (S. pneum AB 30 (erm)): >16 µg/mL; Minimum Inhibitory Concentrations, MoraXella MI (MoraXella MI): 0.06 µg/mL; Minimum Inhibitory Concentrations, H. inflenza ATCC 49247 (H. inflenza ATCC 49247): >16 µg/mL; Minimum Inhibitory Concentrations, S. pneum ATCC 49619 (S. pneum ATCC 49619): 0.008 µg/mL; Minimum Inhibitory Concentrations, S. pneum AB 34 (mef) (S. pneum AB 34 (mef)): >16 µg/mL; Minimum Inhibitory Concentrations, S. pneum ATCC 6303 (S. pneum ATCC 6303): 0.03 µg/mL; Minimum Inhibitory Concentrations, S. pneum 1251 (mef) (S. pneum 1251 (mef)): 8 µg/mL; Minimum Inhibitory Concentrations, S. pneum CS 1687 (mef) (S. pneum CS 1687 (mef)): >16 µg/mL
